# Source: patent US8829006B2, “Compounds” (Boehringer Ingelheim International GmbH, priority 2007, dated 2014)
# pKi: −log10 of the molar value.
# Biological target: T1, human CGRP receptor (Homo sapiens, UniProt O60894+Q16602)
# T1 construct: SK-N-MC membranes (˜20 μg protein) are incubated for 180 minutes at ambient temperature; endogenous in cells; host or cells: SK-N-MC cells (membranes)
# Test: Binding studies with SK-N-MC cells (expressing the human CGRP receptor)
# Details: SK-N-MC membranes, 50 pM 125I-iodotyrosyl-CGRP, 180 minutes at ambient temperature
# Method: A. Binding Studies with SK-N-MC Cells (Expressing the Human CGRP Receptor)
# SK-N-MC membranes (˜20 μg protein) are incubated for 180 minutes at ambient temperature with 50 pM ^125I-iodotyrosyl-Calcitonin-Gene-Related Peptide and increasing concentrations of the test substances in a total volume of 250 μl (assay buffer: 10 mM tris, 50 mM NaCl, 5 mM MgCl2, 1 mM EDTA, pH=7.4). The incubation is ended by rapid filtration through GF/B-glass fibre filters treated with polyethyleneimine (0.1%) using a cell harvester. The protein-bound radioactivity is measured using a gamma counter. Non-specific binding is defined as the bound radioactivity after the presence of 1 μM BIBN4096BS during incubation.
# The concentration binding curves are analysed using computer-aided non-linear curve fitting.
# T1 sequence (Q16602 23-461): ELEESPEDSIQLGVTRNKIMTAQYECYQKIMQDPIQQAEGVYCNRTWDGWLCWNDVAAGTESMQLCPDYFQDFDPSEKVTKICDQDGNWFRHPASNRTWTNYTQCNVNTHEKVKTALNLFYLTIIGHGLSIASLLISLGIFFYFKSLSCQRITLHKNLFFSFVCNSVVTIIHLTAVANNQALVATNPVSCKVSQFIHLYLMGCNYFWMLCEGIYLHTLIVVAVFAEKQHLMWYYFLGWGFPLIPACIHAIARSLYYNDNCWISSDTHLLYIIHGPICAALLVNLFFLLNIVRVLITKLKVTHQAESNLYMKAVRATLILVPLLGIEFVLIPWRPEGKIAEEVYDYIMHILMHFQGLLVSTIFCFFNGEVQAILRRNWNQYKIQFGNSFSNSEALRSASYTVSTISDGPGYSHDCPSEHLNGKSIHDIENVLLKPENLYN
# T1 sequence (O60894 27-148): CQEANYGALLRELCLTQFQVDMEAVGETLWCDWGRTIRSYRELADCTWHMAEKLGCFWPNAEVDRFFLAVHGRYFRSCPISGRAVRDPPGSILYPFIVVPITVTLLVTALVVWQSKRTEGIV
row,SMILES,pKi
1,O=C(c1cc(N2CCC(n3c(=O)[nH]c4ncccc43)CC2)ncn1)N1Cc2ccccc2C1 [(17)],6.93
2,CC1(C)CN(C(=O)c2cc(N3CCC(n4c(=O)[nH]c5ncccc54)CC3)ncn2)c2ccc(F)cc21 [(37)],8.70
3,O=C(c1cc(N2CCC(n3c(=O)[nH]c4ncccc43)CC2)ncn1)N1CC(CCCN2CCCC2)c2ccccc21 (stereo not drawn) [(41)],7.68
4,CC1(C)CCN(C(=O)c2cc(N3CCC(n4c(=O)[nH]c5ncccc54)CC3)ncn2)C1 [(50)],6.16

# Continued by rising pKi, values first:
row,pKi,SMILES
1,7.47,O=C(c1cc(N2CCC(n3c(=O)[nH]c4ncccc43)CC2)ncn1)N1CCC2CCCCC21 (stereo not drawn) [(11)]
2,7.68,O=C(c1cc(N2CCC(n3nc(-c4ccccc4)[nH]c3=O)CC2)ncn1)N1CCc2ccccc21 [(15)]
3,8.30,O=C(c1cc(N2CCC(n3c(=O)[nH]c4ncccc43)CC2)ncn1)N1CCc2cc(F)ccc21 [(36)]
4,8.40,COc1ccc2c(c1)CCN(C1CCN(c3cc(C(=O)N4Cc5cn[nH]c5C(C)(C)C4)ncn3)CC1)C(=O)N2 [(8)]
5,8.52,CC1(C)CN(C(=O)c2cc(N3CCC(n4c(=O)[nH]c5ncccc54)CC3)ncn2)Cc2ccccc21 [(55)]
